According to PubChem BioAssay AID248 (DTP/NCI, 2004):
Toxic doses and inconclusive results are not listed. Rule as the data show it: active = T/C of 150% or more; inactive = T/C below 125%.

Test system: L1210 leukemia ip in BDF1 mice, survival T/C
Assay: NCI In Vivo Anticancer Drug Screen. Data for tumor model L1210 Leukemia (intraperitoneal) in B6D2F1 (BDF1) mice
Details: endpoint: mean survival time, higher = longer survival
Procedure, shortened: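 Transplantable tumor model; survival measured in treated vs vehicle control mice. Value = treated/control.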

[1] = dose: 50.0 mg/kg/injection, schedule: Q01DX001 (ip), vehicle: saline
[2] = dose: 100.0 mg/kg/injection, schedule: Q01DX001 (ip), vehicle: saline
[3] = dose: 100.0 mg/kg/injection, schedule: Q04DX003 (ip), vehicle: saline
[4] = dose: 200.0 mg/kg/injection, schedule: Q04DX003 (ip), vehicle: saline
[5] = dose: 100.0 mg/kg/injection, schedule: Q01DX009 (ip), vehicle: Klucel (hydroxypropylcellulose) (HPC)
[6] = dose: 200.0 mg/kg/injection, schedule: Q01DX009 (ip), vehicle: Klucel (hydroxypropylcellulose) (HPC)
[7] = dose: 200.0 mg/kg/injection, schedule: Q04DX003 (ip), vehicle: saline with Tween-80
[8] = dose: 400.0 mg/kg/injection, schedule: Q04DX003 (ip), vehicle: saline with Tween-80
[9] = dose: 50.0 mg/kg/injection, schedule: Q04DX002 (ip), vehicle: Klucel (hydroxypropylcellulose) (HPC)
[10] = dose: 100.0 mg/kg/injection, schedule: Q04DX002 (ip), vehicle: Klucel (hydroxypropylcellulose) (HPC)
[11] = dose: 200.0 mg/kg/injection, schedule: Q04DX002 (ip), vehicle: Klucel (hydroxypropylcellulose) (HPC)
[12] = dose: 25.0 mg/kg/injection, schedule: Q01DX001 (ip), vehicle: saline

Measured: T/C

Cc1ccc(Nc2nc(N)nc(N)c2C=O)cc1C
inactive: [1] 109 % of control | [2] 109 % of control | dose: 200.0 mg/kg/injection, schedule: Q01DX001 (ip), vehicle: saline 100 % of control | dose: 400.0 mg/kg/injection, schedule: Q01DX001 (ip), vehicle: saline 97 % of control

N#CC1C=Cc2ccccc2N1C(=O)Oc1ccccc1 (centres undefined)
inactive: [3] 104 % of control | [4] 93 % of control | dose: 400.0 mg/kg/injection, schedule: Q04DX003 (ip), vehicle: saline 94 % of control

N#Cc1cccc(/C=C/C=C\c2ccc([N+](=O)[O-])cc2)c1
inactive: [5] 89 % of control | [6] 95 % of control

CC(=O)Nc1cccc(/C=C/c2nc(N)nc(N)c2-c2ccc(Cl)cc2)c1
inactive: dose: 100.0 mg/kg/injection, schedule: Q01DX001 (ip), vehicle: saline with Tween-80 98 % of control | dose: 200.0 mg/kg/injection, schedule: Q01DX001 (ip), vehicle: saline with Tween-80 87 % of control | dose: 400.0 mg/kg/injection, schedule: Q01DX001 (ip), vehicle: saline with Tween-80 90 % of control

CC/C=C(CC)/C(CC)=C(\Br)CC
inactive: [3] 94 % of control | [4] 92 % of control

Cc1cc(C(=O)CCl)c(CN2C(=O)c3ccccc3C2=O)c(=O)n1C
inactive: dose: 100.0 mg/kg/injection, schedule: Q01DX009 (ip), vehicle: saline with Tween-80 98 % of control | dose: 100.0 mg/kg/injection, schedule: Q04DX003 (ip), vehicle: saline with Tween-80 108 % of control | dose: 200.0 mg/kg/injection, schedule: Q01DX009 (ip), vehicle: saline with Tween-80 100 % of control | [7] 105 % of control | dose: 400.0 mg/kg/injection, schedule: Q01DX009 (ip), vehicle: saline with Tween-80 92 % of control | [8] 110 % of control

NC(=S)N/N=C\c1c(Cl)[nH]c2ccc(/C=N/NC(N)=S)cc12
inactive: [9] 97 % of control | [10] 90 % of control | [11] 94 % of control

O=C(NCC(S)c1ccc(Cl)cc1)C(F)(F)F (centres undefined)
inactive: [7] 88 % of control | [8] 86 % of control

Cc1ccc(NC(=O)c2c(Cl)c(Cl)c(Cl)c(Cl)c2C(=O)O)cc1Cl
inactive: [5] 100 % of control | dose: 100.0 mg/kg/injection, schedule: Q04DX003 (ip), vehicle: Klucel (hydroxypropylcellulose) (HPC) 103 % of control | [6] 98 % of control | dose: 200.0 mg/kg/injection, schedule: Q04DX003 (ip), vehicle: Klucel (hydroxypropylcellulose) (HPC) 102 % of control | dose: 400.0 mg/kg/injection, schedule: Q04DX003 (ip), vehicle: Klucel (hydroxypropylcellulose) (HPC) 96 % of control

Cc1ccc(S(=O)(=O)OC2CC3c4ccccc4C2c2cccc[n+]23)cc1 (centres undefined)
inactive: dose: 12.5 mg/kg/injection, schedule: Q01DX001 (ip), vehicle: saline 103 % of control | [12] 115 % of control | dose: 25.0 mg/kg/injection, schedule: Q04DX003 (ip), vehicle: saline 99 % of control | [1] 110 % of control | dose: 50.0 mg/kg/injection, schedule: Q04DX003 (ip), vehicle: saline 94 % of control | [2] 105 % of control

OC(c1ccccc1)C1(N2CCCCC2)CCCCC1 (centres undefined)
inactive: dose: 100.0 mg/kg/injection, schedule: Q01DX001 (ip), vehicle: Klucel (hydroxypropylcellulose) (HPC) 94 % of control | dose: 200.0 mg/kg/injection, schedule: Q01DX001 (ip), vehicle: Klucel (hydroxypropylcellulose) (HPC) 100 % of control | dose: 400.0 mg/kg/injection, schedule: Q01DX001 (ip), vehicle: Klucel (hydroxypropylcellulose) (HPC) 96 % of control

Cc1ccc(O)c(C)n1
inactive: dose: 66.0 mg/kg/injection, schedule: Q01DX009 (ip), vehicle: saline 98 % of control | dose: 150.0 mg/kg/injection, schedule: Q01DX009 (ip), vehicle: saline 97 % of control | dose: 200.0 mg/kg/injection, schedule: Q01DX009 (ip), vehicle: saline 93 % of control | dose: 400.0 mg/kg/injection, schedule: Q01DX009 (ip), vehicle: saline 102 % of control

Cc1ccc2c(n1)Nc1ncnc(N)c1S2
inactive: dose: 12.5 mg/kg/injection, schedule: Q04DX003 (ip), vehicle: Klucel (hydroxypropylcellulose) (HPC) 96 % of control | dose: 25.0 mg/kg/injection, schedule: Q04DX003 (ip), vehicle: Klucel (hydroxypropylcellulose) (HPC) 108 % of control

CC1(C)N=C(N)N=C(N)N1c1cccc(OCCCOc2cccc(N)c2)c1
inactive: [12] 97 % of control | [1] 98 % of control

O=c1cc(N(Cc2ccccc2)Cc2ccccc2)[nH]c(=O)[nH]1
inactive: dose: 75.0 mg/kg/injection, schedule: Q01DX001 (ip), vehicle: Klucel (hydroxypropylcellulose) (HPC) 101 % of control | dose: 75.0 mg/kg/injection, schedule: Q01DX001 (ip), vehicle: saline with Tween-80 94 % of control | dose: 150.0 mg/kg/injection, schedule: Q01DX001 (ip), vehicle: Klucel (hydroxypropylcellulose) (HPC) 102 % of control | dose: 150.0 mg/kg/injection, schedule: Q01DX001 (ip), vehicle: saline with Tween-80 95 % of control | dose: 300.0 mg/kg/injection, schedule: Q01DX001 (ip), vehicle: Klucel (hydroxypropylcellulose) (HPC) 106 % of control | dose: 300.0 mg/kg/injection, schedule: Q01DX001 (ip), vehicle: saline with Tween-80 98 % of control

COC1OC(COS(C)(=O)=O)C(O)C(OS(C)(=O)=O)C1OS(C)(=O)=O (centres undefined)
inactive: [9] 93 % of control | [10] 93 % of control | [11] 101 % of control

O=C(c1ccsc1)C(O)c1ccccc1 (centres undefined)
inactive: dose: 100.0 mg/kg/injection, schedule: Q01DX001 (ip), vehicle: carboxymethylcellulose (CMC) 97 % of control | dose: 200.0 mg/kg/injection, schedule: Q01DX001 (ip), vehicle: carboxymethylcellulose (CMC) 87 % of control | dose: 400.0 mg/kg/injection, schedule: Q01DX001 (ip), vehicle: carboxymethylcellulose (CMC) 103 % of control
